Measurements taken from US6235891A, “Glucocorticoid receptor agonist and decreased PP5” (South Alabama Medical Science Foundation, priority 1999, dated 2001).
pIC50: −log10 of the molar value.

System: PP5 mRNA
Experiment: Northern blot analysis of PP5 mRNA expression in A549 cells
Type: cell-based, human
Set-up: key to Activity class in initial screen (PP5 mRNA reduction): oligonucleotides giving a reduction of PP5 mRNA of approximately 50% or greater were considered active
Conditions: for Activity class in initial screen (PP5 mRNA reduction) / Percent Inhibition of PP5 mRNA: 300 nM oligonucleotide; for Percent Inhibition of PP5 mRNA: four hours, lipofectin, approximate, compared to control
Source text: The oligonucleotides shown in Table 1 were designed using the Genbank sequences HSSERTHRP (Genbank accession number X92121), HSRNAPPP5 (Genbank accession number X89416) and PPP5C (Genbank accession number U25174), synthesized and tested for inhibition of PP5 mRNA expression in A549 cells using a Northern blot assay. All oligonucleotides shown in Table 1 are chimeric oligonucleotides with central 2'-deoxy "gaps," which have phosphorothioate backbones, flanked on both sides by 2'-methoxyethoxy (2'-MOE) "wings" (shown in bold), which have phosphodiester backbones. All cytosines in the 2'-MOE wings are 5-methylcytosines.
In the initial screen, A549 cells were treated with oligonucleotides at a concentration of 300 nM oligonucleotide for four hours in the presence of […] lipofectin. Results were normalized and expressed as a percent of control. The effect of each oligonucleotide on levels of PP5 mRNA, expressed as approximate percent inhibition compared to control, is shown in Table 1. In this initial screen, oligonucleotides giving a reduction of PP5 mRNA of approximately 50% or greater were considered active. […] These sequences (SEQ ID NO: 1, 2, 3, 4, 6, 7 and 12, respectively, SEQ ID Nos shown in bold in Table 1) are therefore preferred.
These oligonucleotides were tested for their ability to reduce PP5 mRNA levels in A549 cells, using oligonucleotide doses of 25 to 500 nM.
The human lung tumor cell line A549 was obtained from the American Type Culture Collection (Rockville Md.) and were grown in DMEM (Gibco BRL, Gaithersburg Md.), supplemented with 10% fetal calf. Cells were seeded on 60 mm plates. When they reached 70% confluency, they were washed with DMEM and 1 ml of DMEM containing 15 μg/ml DOTMA/DOPE (Lipofectin®, GIBCO-BRL) and oligonucleotide at desired concentration was added. Duplicate dishes were used for each treatment condition. After 4 hours of treatment at 37°, cells were washed and cultured in fresh DMEM containing 10% fetal bovine serum for an additional 17 hours. Cells were then harvested and total RNA was extracted with TRIzol Reagent (GIBCO-BRL) according to manufacturer's protocol. Total RNA (20 μg) was fractionated on a 1% agarose gel containing formaldehyde, and transferred to a DURLON-UV (Stratagene) nylon membrane. Following UV crosslinking, the filters were hybridized with the appropriate protein phosphatase probe. The ^32 P-labeled human PP cDNA probes are generated with DECAPrime® DNA Labeling Kit (Ambion) according to the manufacturer's protocol. Hybridization was performed in a hybridization solution containing 50% formamide at 42° for 16 hours. This was followed by two low stringency washes (2×SSC) at room temperature and two high stringency washes (0.1×SSC/0.5% SDS) at 55° C. Hybridization signals were visualized by autoradiography, and filters were then stripped and reprobed with a ^32 P-labeled glyceraldehyde-3-phosphate dehydrogenase (GAPDH) probe to confirm equal loading. The densities of hybridization signals were measured with the NIH Image program (ImagePC).
The cells were harvested, and total RNA was extracted with TRIzol® Reagent according to the methods of the manufacturer. Total RNA (20 μg) was fractionated on 1% agarose gels containing formaldehyde and transferred to DURLON-UV nylon membranes (Stratagene). Following UV cross-linking, the filters were hybridized with a [α^32 P]probe for human PP5. The human PP5 cDNA probe was generated from the full length coding region of PP5 and [α^32 P]-dATP was labeled with DECAprime® DNA Labeling Kit according to the manufacturer's protocol. Hybridization was performed in the presence of 50% formamide, 0.1 M Pipes, 0.8 M NaCl, 5×Denhardt's solution, 100 μg/ml denatured herring sperm DNA, 1×10^6 cpm/ml [α-^32 P]-labeled probe and 10% dextran sulfate at 42° C. for 16 hours. Following hybridization, the membrane was subjected to two low stringency washes (2×SSC) at room temperature and then two high stringency washes (0.1×SSC/0.5% SDS) at 55° C. […]

Substance	Activity class in initial screen (PP5 mRNA reduction)	Percent Inhibition of PP5 mRNA	pIC50 (doses of 25 to 500 nM, read-out: IC50 for reduction of PP5 mRNA levels)
ISIS 14494: chimeric 2'-MOE/deoxy gap antisense oligonucleotide to human PP5, coding; TTCAGAGCTCCATCAGCCGG, SEQ ID NO: 2 (sugars by position and backbone not given here; chimeric 2'-MOE wings with deoxy gap)	active	52%	
ISIS 15523: chimeric PP5 antisense oligonucleotide, wider deoxy gap, uniformly phosphorothioate; GGGCCCTATTGCTTGAGTGG, SEQ ID NO: 12 (all phosphorothioate, sugars by position and methylation of C not given here; chimeric with deoxy gap)			~7.00
ISIS 14496: chimeric 2'-MOE/deoxy gap antisense oligonucleotide to human PP5, coding; CCGCTGTACTCATCCTCAAT, SEQ ID NO: 4 (sugars by position and backbone not given here; chimeric 2'-MOE wings with deoxy gap)	active	54%	
ISIS 14504: chimeric 2'-MOE/deoxy gap antisense oligonucleotide to human PP5, 3' UTR; GGGCCCTATTGCTTGAGTGG, SEQ ID NO: 12 (sugars by position and backbone not given here; chimeric 2'-MOE wings with deoxy gap)	active		
ISIS 14501: chimeric 2'-MOE/deoxy gap antisense oligonucleotide to human PP5, stop codon; CGCCCCGCCCGTCACCTCAC, SEQ ID NO: 9 (sugars by position and backbone not given here; chimeric 2'-MOE wings with deoxy gap)		42%	
ISIS 14499: chimeric 2'-MOE/deoxy gap antisense oligonucleotide to human PP5, coding; CCAGGTTGTTCTCTTCCAAG, SEQ ID NO: 7 (sugars by position and backbone not given here; chimeric 2'-MOE wings with deoxy gap)	active	62%	
ISIS 14502: chimeric 2'-MOE/deoxy gap antisense oligonucleotide to human PP5, 3' UTR; CCTACCCCCTCTGCAAACCT, SEQ ID NO: 10 (sugars by position and backbone not given here; chimeric 2'-MOE wings with deoxy gap)		40%	
ISIS 14497: chimeric 2'-MOE/deoxy gap antisense oligonucleotide to human PP5, coding; TCCCCACATACTGTAATCTT, SEQ ID NO: 5 (sugars by position and backbone not given here; chimeric 2'-MOE wings with deoxy gap)		11%	
ISIS 14503: chimeric 2'-MOE/deoxy gap antisense oligonucleotide to human PP5, 3' UTR; GCCCCAGCTGCTCCACCTCC, SEQ ID NO: 11 (sugars by position and backbone not given here; chimeric 2'-MOE wings with deoxy gap)		27%	
ISIS 14495: chimeric 2'-MOE/deoxy gap antisense oligonucleotide to human PP5, coding; GTAGGCCAGGCTGCGGTTGC, SEQ ID NO: 3 (sugars by position and backbone not given here; chimeric 2'-MOE wings with deoxy gap)	active	66%	
ISIS 14500: chimeric 2'-MOE/deoxy gap antisense oligonucleotide to human PP5, coding; AGAGCCCTGGAGGTGGATGT, SEQ ID NO: 8 (sugars by position and backbone not given here; chimeric 2'-MOE wings with deoxy gap)		41%	
ISIS 14505: chimeric 2'-MOE/deoxy gap antisense oligonucleotide to human PP5, 3' UTR; CCCAGCCTAGCCCCACCATG, SEQ ID NO: 13 (sugars by position and backbone not given here; chimeric 2'-MOE wings with deoxy gap)		23%	
ISIS 14498: chimeric 2'-MOE/deoxy gap antisense oligonucleotide to human PP5, coding; GTACTTGGCCTTCACCTCAC, SEQ ID NO: 6 (sugars by position and backbone not given here; chimeric 2'-MOE wings with deoxy gap)	active		
ISIS 14493: chimeric 2'-MOE/deoxy gap antisense oligonucleotide to human PP5, AUG; TCGCCCTCCGCCATCGCCAT, SEQ ID NO: 1 (sugars by position and backbone not given here; chimeric 2'-MOE wings with deoxy gap)	active		
